Data as given in patent US4172198A, “7-(N-substituted-2-phenylglycinamido)-3-sub stituted-3-cephem-4-carboxylic acid compounds and preparation thereof” (Fujisawa Pharmaceutical Co., Ltd., priority 1976, dated 1979).
Values after ≈ are worked out from the molar mass of the structure shown. Like-named read-outs stand apart in the source and are kept apart here.

How the values were obtained:
Assay in all cases: minimal inhibitory concentration (MIC) by two-fold agar-plate dilution method
Type in all cases: cell-based
Ps. Aeruginosa 721 = conditions: Pseudomonas aeruginosa, 10^6 viable cells per ml, HI-agar, 37° C., 20 hours
Method: (§1) For the purpose of illustrating of usefulness of the object compound(1) of this invention, the following minimal inhibitory concentrations of some representative compounds against some test strains will be shown.
(§2) The minimal inhibitory concentration (MIC) was determined by the two-fold agar-plate dilution method as described below.
(§3) One loopful of an overnight culture of each test strain in Trypticase-soy broth was streaked on heart infusion agar (HI-agar) containing graded concentrations of representative antibiotic, and the MICs were expressed in terms of μg/ml. after incubation at 37° C. for 20 hours.

B. Subtilis ATCC-6633 = conditions: Bacillus subtilis, ATCC6633, 10^8 viable cells per ml, HI-agar, 37° C., 20 hours
Method: as §2, §3

Sal. Enteritidis = conditions: Salmonella enterica, 10^8 viable cells per ml, HI-agar, 37° C., 20 hours
Method: as §2, §3

Staph. Aureus 209-P = conditions: Staphylococcus aureus, 10^8 viable cells per ml, HI-agar, 37° C., 20 hours
Method: as §2, §3

Ps. Aeruginosa = conditions: Pseudomonas aeruginosa
Method: as §2, §3

Sh flexneri 2a = conditions: 20 h
Method: as §1, §2, §3

[1] = Sal. Enteritidis, first part of table
[2] = Ps. Aeruginosa, 10^6 viable cells per ml, HI-agar, 37° C., 20 hours, read-out: MIC
[3] = ENTERITIDIS, Sal. Enteritides, second part of table

Cn1nnnc1SCC1=C(C(=O)O)N2C(=O)C(NC(=O)[C@H](NC(=O)c3nonc3O)c3ccccc3)[C@H]2SC1 (stereo partly drawn) [Example 1-1, 7-[D-2-(4-hydroxy-3-furazancarboxamido)-2-phenylacetamido]-3-(1-methyl-1H-tetrazol-5-ylthiomethyl)-3-cephem-4-carboxylic acid]
MIC (Ps. Aeruginosa 721): 0.39 µg/mL (≈ 0.68 µM)

Cn1nnnc1SCC1=C(C(=O)O)N2C(=O)C(NC(=O)[C@H](NC(=O)c3cnc4ccccn4c3=O)c3ccccc3)C2SC1 (stereo partly drawn) [Example 1-6, 7-[D-2-(4-oxo-4H-pyrido[1,2-a]pyrimidine-3-carboxamido)-2-phenylacetamide]-3-(1-methyl-1H-tetrazol-5-ylthiomethyl)-3-cephem-4-carboxylic acid]
MIC (Ps. Aeruginosa 721): 1.56 µg/mL (≈ 2.46 µM)

Cn1nnnc1SCC1=C(C(=O)O)N2C(=O)C(NC(=O)[C@H](NC(=O)N3CCOC3=O)c3ccccc3)[C@H]2SC1 (stereo partly drawn) [Example 1-10, 7-[D-2-(2-oxo-3-oxazolidinecarboxamido)-2-phenylacetamido]-3-(1-methyl-1H-tetrazol-5-ylthiomethyl)-3-cephem-4-carboxylic acid]
MIC (B. Subtilis ATCC-6633): 0.2 µg/mL (≈ 0.348 µM)
MIC (Sal. Enteritidis; [1]): 0.78 µg/mL (≈ 1.36 µM)
MIC (Staph. Aureus 209-P): 0.78 µg/mL (≈ 1.36 µM)
MIC (Ps. Aeruginosa 721): 0.39 µg/mL (≈ 0.679 µM)

Cn1nnnc1SCC1=C(C(=O)O)N2C(=O)C(NC(=O)[C@H](NC(=O)Cc3cc(=O)[nH]c(=N)[nH]3)c3ccccc3)C2SC1 (some centres unmarked) [Example 1-16]
MIC (Ps. Aeruginosa 721): 1.56 µg/mL (≈ 2.55 µM)

Cn1nnnc1SCC1=C(C(=O)O)N2C(=O)C(NC(=O)[C@H](NC(=O)c3cc(Cl)n[nH]c3=O)c3ccccc3)[C@H]2SC1 (stereo partly drawn) [Example 1-20, 7-[D-2-(3-oxo-6-chloro-2,3-dihydro-4-pyridazinecarboxamido)-2-phenylacetamido]-3-(1-methyl-1H-tetrazol-5-ylthiomethyl)-3-cephem-4-carboxylic acid]
MIC (Ps. Aeruginosa 721): 0.78 µg/mL (≈ 1.26 µM)

Cc1[nH]cc(OCC(=O)N[C@@H](C(=O)NC2C(=O)N3C(C(=O)[O-])=C(CSc4nnnn4C)CS[C@H]23)c2ccccc2)c(=O)c1Cl.[Na+] (stereo partly drawn) [Example 1-31, sodium 7-{D-2-[2-(4-oxo-5-chloro-6-methyl-1,4-dihydropyridin-3-yloxy)acetamido]-2-phenylacetamido}-3-(1-methyl-1H-tetrazol-5-ylthiomethyl)-3-cephem-4-carboxylate]
MIC (B. Subtilis ATCC-6633): 0.78 µg/mL
MIC (Ps. Aeruginosa; 20 h): 0.78 µg/mL
MIC (Sal. Enteritidis; [1]): 0.39 µg/mL
MIC (Staph. Aureus 209-P): 1.56 µg/mL
MIC (Sh flexneri 2a): 0.2 µg/mL

Cn1nnnc1SCC1=C(C(=O)O)N2C(=O)C(NC(=O)[C@H](NC(=O)COc3c[nH]c(CO)c(Cl)c3=O)c3ccccc3)[C@H]2SC1 (stereo partly drawn) [Example 1-34, 7-{D-2-[2-(4-oxo-5-chloro-6-hydroxymethyl-1,4-dihydropyridin-3-yloxy)-acetamido]-2-phenylacetamido}-3-(1-methyl-1H-tetrazol-5-ylthiomethyl)-3-cephem-4-carboxylic acid]
MIC (Ps. Aeruginosa; [2]): 0.78 µg/mL (≈ 1.15 µM)
MIC (Sal. Enteritidis; [3]): 0.2 µg/mL (≈ 0.295 µM)
MIC (Sh flexneri 2a): 0.2 µg/mL (≈ 0.295 µM)

Cn1nnnc1SCC1=C(C(=O)O)N2C(=O)C(NC(=O)[C@H](NC(=O)COc3c[nH]c(CCl)cc3=O)c3ccccc3)C2SC1 (stereo partly drawn) [Example 1-35, 7-{D-2-[2-(4-oxo-6-chloromethyl-1,4-dihydropyridin-3-yloxy)acetamido]-2-penylacetamido}-3-(1-methyl-1H-tetrazol-5-ylthiomethyl)-3-cephem-4-carboxylicacid]
MIC (Ps. Aeruginosa; [2]): 0.78 µg/mL (≈ 1.18 µM)
MIC (Sal. Enteritidis; [3]): 0.39 µg/mL (≈ 0.59 µM)
MIC (Sh flexneri 2a): 0.39 µg/mL (≈ 0.59 µM)

Cc1cc(=O)c(OCC(=O)N[C@@H](C(=O)NC2C(=O)N3C(C(=O)O)=C(CSc4nnnn4C)CSC23)c2ccccc2)c[nH]1 (stereo partly drawn) [Example 1-36, 7-{D-2-[2-(4-oxo-6-methyl-1,4-dihydropyridin-3-yloxy)acetamido]-2-phenylacetamido}-3-(1-methyl-1H-tetrazol-5-ylthiomethyl)-3-cephem-4-carboxylic acidm]
MIC (Ps. Aeruginosa; [2]): 1.56 µg/mL (≈ 2.49 µM)
MIC (Sal. Enteritidis; [3]): 0.78 µg/mL (≈ 1.24 µM)
MIC (Sh flexneri 2a): 0.39 µg/mL (≈ 0.622 µM)

Cc1[nH]cc(OCC(=O)N[C@@H](C(=O)NC2C(=O)N3C(C(=O)O)=C(CSc4nnnn4C)CSC23)c2ccc(O)cc2)c(=O)c1Cl (stereo partly drawn) [Example 1-37, 7-{D-2-[2-(4-oxo-5-chloro-6-methyl-1,4-dihydropyridin-3-yloxy)acetamido]-2-(4-hydroxy)phenylacetamido} -3-(1-methyl-1H-tetrazol-5-ylthiomethyl)-3-cephem-4-carboxylic acid]
MIC (Ps. Aeruginosa; [2]): 0.78 µg/mL (≈ 1.15 µM)
MIC (Sal. Enteritidis; [3]): 0.05 µg/mL (≈ 0.0738 µM)
MIC (Sh flexneri 2a): 0.1 µg/mL (≈ 0.148 µM)

Cn1nnnc1SCC1=C(C(=O)O)N2C(=O)C(NC(=O)[C@H](NC(=O)N3CCOC3=O)c3ccc(O)cc3)[C@H]2SC1 (stereo partly drawn) [Example 2-1, 7-[D-2-(2-oxo-3-oxazolidinecarboxamido)-2-(4-hydroxyphenyl)acetamido]-3-(1-methyl-1H-tetrazol-5-ylthiomethyl)-3-cephem-4-carboxylic acid]
MIC (Ps. Aeruginosa 721): 0.39 µg/mL (≈ 0.66 µM)
